Reference: US9951366B2, “Cell-free protein synthesis method and device using a eukaryotic cell lysate in the presence of a caspase inhibitor and the use of a caspase inhibitor for increasing the yield and/or the stability of the synthesized proteins in such a method” (Fraunhofer-Gesellschaft zur Foerderung der angewandten …, priority 2013, dated 2018)
Peptide text beside a SMILES is read from it. * marks the point of attachment. Cbz = O=C(OCc1ccccc1)*; CH2F = FC*

What was measured:
[1] = system: cell-free eukaryotic translation system on the basis of a cell extract from Spodoptera frugiperda (Sf21) insect cells; assay: Cell-free synthesis of SII-eYFP, protein yield by 14C-leucine incorporation (hot TCA precipitation, scintillation); format: biochemical; conditions: −V, +CI
Protocol: The influence of the caspase inhibitor on the maximum achievable protein yield was initially investigated on the basis of the expression of the cytosolic protein SII-eYFP. This model protein is the enhanced yellow fluorescent protein (eYFP) which was fused at the N-terminus with an affinity tag (Strep-Tag, SII-Tag) and was present in the vector pIX3.0 (Qiagen). The expression of the model protein was analyzed in the batch system and the dialysis system (50 μl reaction chamber; 1000 μl feeding chamber; cut-off of the membrane=10 kDa) over a period of 48 h. The translation mixtures were each incubated in the batch system and the dialysis system with (+) and without (−) insect cell vesicles (V) and with (+) and without (−) caspase inhibitor (CI) (at 27° C. and 600 rpm). The protein synthesis was carried out in the presence of the radioactively labeled amino acid ^14C-leucine in order to be able to determine the quantity of de novo synthesized target protein by means of hot TCA precipitation and scintillation measurement. The translation reactions were interrupted at particular time points (0 h, 2 h, 4 h, 24 h and 48 h) and analyzed as follows: 5 μl of the mixture was precipitated in hot TCA or ice-cold acetone in each case. A further 5 μl was resuspended in 25 μl PBS. The remaining sample volume was separated by means of a centrifuging step into the supernatant fluid (SN) and the vesicular fraction (VF). Aliquots of 5 μl of these fractions were diluted in 25 μl PBS each. Following the TCA precipitation, the samples were separated from free radioactive amino acids via a vacuum-driven filtration system and underwent a scintillation measurement. After drying, the proteins precipitated in acetone were collected in a reducing sample buffer and separated electrophoretically.

[2] = system: Mel-hEGFR-eYFP in Sf21 insect cell lysates; assay: Stability of de novo synthesized Mel-hEGFR-eYFP in batch mode (SDS-PAGE, autoradiography); format: biochemical, Spodoptera frugiperda; conditions: inhibitor 30 μM
From the text: The positive influence of the caspase inhibitor on the stability of cell-free synthesized proteins is shown here on the basis of the expression of the EGF receptor, the protein being a human, high molecular weight transmembrane protein (Epidermal Growth Factor Receptor) with intrinsic tyrosine kinase activity. The coding sequence of the EGF receptor was fused N-terminally with a melittin signal sequence (Mel) and C-terminally with yellow fluorescent protein (eYFP) and cloned into the vector pIX3.0 (Qiagen). The model protein is denoted below as Mel-hEGFR-eYFP (=163 kDa). The melittin signal sequence enables translocation of the membrane protein into the microsomes of the eukaryotic cell extract and subsequently embedding into the membrane of the microsomes. Mel-hEGFR-eYFP has nine potential N-glycosylation sites and therefore, due to the translocation of the target protein, N-glycosylation of the target protein is also enabled in the cell-free system. […] The translation reaction was carried out in the absence and the presence of a caspase inhibitor (Z-VAD-FMK, Promega, 30 μM) and a protease inhibitor mixture (“Complete Protease Inhibitor Cocktail”, Roche), respectively, and stopped at the indicated incubation times (1.5 h, 5 h and 24 h) by freezing the translation reaction in liquid nitrogen. […]

COC(=O)C[C@H](NC(=O)[C@H](C)NC(=O)[C@@H](NC(=O)OCc1ccccc1)C(C)C)C(=O)CF [Z-VAD-FMK, benzyloxycarbonyl-Val-Ala-Asp-[O-methyl]-fluoromethylketone] (Cbz-Val-Ala-Asp(OMe)-CH2F)
protein yield of SII-eYFP ([1]; batch system after 48 h): 17.3 µg/mL
protein yield of SII-eYFP ([1]; dialysis system after 48 h): 90.8 µg/mL
increase of the maximum protein yield of SII-eYFP ([1]; dialysis system vs batch system, 48 h): approximately 400%
Mel-hEGFR-eYFP integrity in the autoradiograph ([2]; after 24 h incubation time): detectable in an intact form
proteolytic decomposition of Mel-hEGFR-eYFP (autoradiograph) ([2]; compared with no inhibitor, 5 h): reduced signs of a proteolytic decomposition
